In patent publication US12187717B2, “Compound and use thereof in treating autoimmune diseases” (PARENCHYMA BIOTECH INC., priority 2022, dated 2025):

What was measured:
CYP1A1 = test: Induction of CYP1A1 protein expression in HepG2 (7-ethoxyresorufin/resorufin); type: cell-based, Human; settings: HepG2, 1 μM, 24 hours, vs control (vehicle)
Method: After recovering HepG2 under culture in DMEM-fetal bovine serum (FBS) 10% medium and then confirming that the survival rate is 97% or more through trypan blue staining, the recovered product was centrifuged at a speed of 1200 rpm for 5 minutes at room temperature, and the cells were prepared by resuspending them in DMEM-fetal calf serum 10% medium at 1.5×10^5 cells/ml.
Thereafter, the cells were dispensed onto a 96-well plate by 200 μl, and each plate was treated with 3 μl of Compounds 6, 21, 32 and 39 at a concentration of 1 μM diluted in DMEM medium, and then cultured in a cell incubator (5% CO2 incubator) for 24 hours. As a control, 3 μl of 0.05% dimethylsulfoxide (DMSO)/DMEM medium was used for treatment.
After 24 hours, the medium of the plate was discarded, washed with dPBS, treated with 100 μl of 2 μM 7-ethoxyresorufin, and cultured in a cell incubator (5% CO2 incubator) for 30 minutes. After 30 minutes, each 75 μl of fluorescamine (150 μg/ml) was treated, then resorufine excitation was measured at 535 nm and emission at 590 nm. The standard curve was measured and used with 0 to 50 pmol of resorufin solution.
After measurement, all solutions were removed, followed by treating the same with 25 μl of 0.5 M sodium hydroxide (NaOH), the cells were scraped and reacted in a shaker at room temperature for 15 minutes.
After 15 minutes, protein was quantified using a Bradford method, and a value was obtained using a calculation formula (sample resorufin amount/sample protein amount), and then one (1) fold was set using the control.

psoriasis = test: Imiquimod-induced psoriasis model; type: in vivo, BALB/C mice; settings: 10 mg/kg oral daily, 0th to 5th days, back skin on 6th day
Method: Hair on the back of female BALB/C mice (8-10 weeks old) was shaved using a shaver and shaving cream, and 62.5 mg of 5% imiquimod cream was applied daily for 6 days to the shaved skin from the next day. Vaseline cream was applied to control mice (Vehicle). In the compound 6 administration group according to an embodiment of the present invention, 10 mg/kg of the compound per mouse was completely added to an ethanol-Cremophor EL mixture (1:1, v/v) corresponding to 15% (v/v) of the administered dose, and then, was diluted in phosphate buffered saline to prepare the final ethanol:Cremophor EL:phosphate buffered saline (7.5:7.5:85, v/v/v), followed by oral administration with 200 μl of the prepared solution daily for a total of 6 times from the 0th to the 5th days of the experiment. On the 6th day of the experiment, back skin tissues of mice were obtained to perform histology and mRNA experiments.

[1] = tested on: experimental autoimmune encephalomyelitis (EAE); test: Experimental autoimmune encephalomyelitis (EAE) model of multiple sclerosis; type: in vivo, C57BL/6 mice; settings: 10 mg/kg oral daily, 15th to 20th days; 21st day; 0-5 stages; solvent control 2.9±1.92
Method: On day 0 of the experiment, myelin oligodendrocyte glycoprotein (MOG) 35-55 peptide (MOG35-55, Peptron) (200 μg), heat killed Mmycobacterium tuberculosis, Difco, Cat No. 231141) (500 μg), and an adjuvant (incomplete freund's adjuvant, Sigma Aldrich, Cat No. F5506) were mixed for 7 minutes to form an emulsion. MOG35-55 emulsion was subcutaneously injected into both flanks of C57BL/6 mice (7-8 weeks old, female), respectively, and then 100 μl of pertussis toxin (Sigma Aldrich, Cat No. P2980) (200 ng) was administered into the tail vein. On the 2nd day of the experiment, an equal amount of pertussis toxin was administered intravenously. […]
In the compound 6 administration group according to an embodiment of the present invention, 10 mg/kg of Compound 6 per mouse was completely dissolved in an ethanol-Cremophor EL mixture corresponding to 7.5% (v/v) of the administered dose, and then, was diluted in phosphate buffered saline to prepare the final ethanol:Cremophor EL:phosphate buffered saline (0.375:0.375:9.25, v/v/v), followed by oral administration with 200 μl of the prepared solution daily for a total of 6 times from the 15th to 20th days of the experiment. The multiple sclerosis index was visually observed and recorded in the severity index system classified into 0-5 stages. […]

[2] = pH-metric solubility and logP (SIRIUS T3); type: physicochemical
Method: After dissolving Compound 6 in ethanol, the solubility was measured and analyzed using a SIRIUS T3 machine.

CYP1A2 = biological target: T1, CYP1A2 (Homo sapiens, UniProt P05177); test: CYP isoenzyme activity; type: in vitro ADME; settings: 10 μM
T1 sequence (P05177 1-516): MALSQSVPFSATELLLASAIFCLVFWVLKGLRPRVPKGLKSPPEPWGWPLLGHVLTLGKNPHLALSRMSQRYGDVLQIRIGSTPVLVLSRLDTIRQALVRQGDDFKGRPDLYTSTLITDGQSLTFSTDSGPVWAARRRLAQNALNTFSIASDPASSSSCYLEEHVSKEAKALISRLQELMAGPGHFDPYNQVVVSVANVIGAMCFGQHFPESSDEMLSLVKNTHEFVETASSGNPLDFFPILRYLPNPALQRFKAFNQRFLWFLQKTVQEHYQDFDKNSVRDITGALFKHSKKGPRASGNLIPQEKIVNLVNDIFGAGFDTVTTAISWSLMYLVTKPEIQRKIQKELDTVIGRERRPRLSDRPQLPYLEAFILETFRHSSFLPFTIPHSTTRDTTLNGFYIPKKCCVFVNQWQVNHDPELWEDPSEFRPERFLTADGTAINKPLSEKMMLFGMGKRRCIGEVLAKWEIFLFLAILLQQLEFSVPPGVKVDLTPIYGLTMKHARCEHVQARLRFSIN

CYP1A1 protein expression level (CYP1A1): significantly higher
pH-metric solubility molarity relative to Comparative Example 1 ([2]; Compound 6 vs Comparative Example 1): about 3.92 times
logP ([2]; pH-metric results, SIRIUS T3): 3.04
pH-metric solubility, Molarity ([2]; pH-metric results, SIRIUS T3): 14.3 μM
pH-metric solubility, Weight/ml ([2]; pH-metric results, SIRIUS T3): 6.104 μg/ml
CYP1A2 activity (CYP1A2): 88.2 % of Control Activity
SMILES: O=C(Cc1c[nH]c2ccc(Cl)cc12)Nc1nc2ccc(N3CCOCC3)cc2s1 [Compound 6, 2-(5-chloro-1H-indol-3-yl)-N-(6-morpholinobenzo[d]thiazol-2-yl)acetamide]
Foxp3 expression in skin lesions (psoriasis): markedly increased
IL-10 expression in skin lesions (psoriasis): markedly increased
IL-17a mRNA expression level in skin lesions (psoriasis): significantly reduced
S100a8 mRNA expression level in skin lesions (psoriasis): significantly reduced
epithelial thickness (psoriasis): significantly reduced
disease severity index (EAE) [1]: 0.92±0.58
